Common to all, as to assay type: cell-based
One assay concerns Hep2. Put plainly: Inhibition of cell growth, Hep2 cells. The following applies: three days at 37° C., microscope assessment; for IC50: Homo sapiens, HEp-2, 72 h, read-out: IC50 value (50% inhibition of cell growth). As to the method:
(§1) Aqueous sterile solutions of each substance to be tested are injected into 1 ml of the respective cell stock solution at concentration steps of 2-50 μg each time. Subsequently, the test chambers are developed together with a non-treated reference chamber for three days at 37° C. Assessment is performed using a microscope. Cell growth or cell decomposition (condition of cell membrane and cell nucleus) is compared to non-treated reference cells.

The next assay relates to HeLa. Kind of assay: Inhibition of cell growth, HeLa cells. The following applies: three days at 37° C., microscope assessment; for IC50: Homo sapiens, 72 h, read-out: IC50 value (50% inhibition of cell growth). As to the method: as §1
For assay [1], the system named is permanent cell cultures such as HeLa, Hep2 cells, of peritoneal carcinoma and pleural carcinoma cells. Put plainly: Inhibition of cell growth, overall statement on the tumor cell cultures. As to the method: as §1
For a further assay, the system named is Peritoneal carcinoma. Put plainly: Inhibition of cell growth, peritoneal carcinoma cells. The note with it: 72 h, three days at 37° C., microscope assessment, read-out: IC50 value (50% inhibition of cell growth). As to the method: as §1
The subject of the next assay is Pleural carcinoma. Put plainly: Inhibition of cell growth, pleural carcinoma cells. The note with it: 72 h, three days at 37° C., microscope assessment, read-out: IC50 value (50% inhibition of cell growth). As to the method: as §1

Here are results for eight compounds from patent US20030166651A1, “Novel 3-substituted 1,2,4-benzotriazines, a method for their production and the use thereof” (priority 1999, published 2003).

Values after ≈ are worked out from the molar mass of the structure shown.

What is called IC50 is the midpoint of a concentration-inhibition curve.

As for `OC[C@@H](O)[C@@H](O)[C@H](O)c1nnc2ccccc2n1` [Compound h, 3-(D-arabino-tetritol-1-yl)-1,2,4-benzotriazine], the “IC50 value (50% inhibition of cell growth)” value in the assay with Hep2 and with HeLa was 150 µg/mL each time.

`OC[C@@H](O)[C@@H](O)[C@H](O)c1nnc2ccc(Cl)cc2n1` [Compound k, 3-(D-arabino-tetritol-1-yl)-6-chlorobenzo-1,2,4-triazine]: the “IC50 value (50% inhibition of cell growth)” value with HeLa is 250 µg/mL.

Turning to `CC(C)NC(=O)Cc1nnc2ccccc2n1` [Compound l, 3-(isopropylaminocarbonylmethyl)-1,2,4-benzotriazine], in assay [1], the “inhibition of cell growth / antitumor activity, result in words” value is “preferred activity”.

With `COC(=O)Cc1nnc2ccc(Cl)c(N)c2n1` [Compound d, 3-(methoxycarbonylmethyl)-5-amino-6-chlorobenzo-1,2,4-triazine], the IC50 was 500 µg/mL (≈ 1980 µM) in the assay with Hep2, 50 µg/mL (≈ 198 µM) in the assay on HeLa, 25 to 30 µg/mL (≈ 98.9 to 119 µM) with Peritoneal carcinoma and 500 µg/mL (≈ 1980 µM) in the assay on Pleural carcinoma.

“3-(D-galacto-tetritol-1-yl)-1,2,4-benzotriazine [Compound i]”: the “IC50 value (50% inhibition of cell growth)” value in the assay on HeLa is 400 µg/mL.

Consider `CCOC(=O)Cc1nnc2ccc(Br)cc2n1` [Compound g, 3-(ethoxycarbonylmethyl)-6-bromobenzo-1,2,4-triazine], for which the IC50 with Hep2 is 8 to 16 µg/mL (≈ 27 to 54 µM); in the assay on HeLa it was 8 to 16 µg/mL (≈ 27 to 54 µM); in the assay on Peritoneal carcinoma, 35 µg/mL (≈ 118 µM). Also, in assay [1], the “inhibition of cell growth / antitumor activity, result in words” value is listed as “preferred activity”.

Regarding `COC(=O)Cc1nnc2ccc(Cl)cc2n1` [Compound b, 3-(methoxycarbonylmethyl)-6-chlorobenzo-1,2,4-triazine], the IC50 in the assay with Hep2 was found to be 120 µg/mL (≈ 505 µM); in the assay on HeLa it was 160 µg/mL (≈ 673 µM); with Peritoneal carcinoma it was 150 µg/mL (≈ 631 µM); in the assay on Pleural carcinoma, 500 µg/mL (≈ 2100 µM).

For the compound `COC(=O)Cc1nnc2cccc(Cl)c2n1` [Compound c, 3-(methoxycarbonylmethyl)-5-chlorobenzo-1,2,4-triazine], the IC50 in the assay with Hep2 is 16 µg/mL (≈ 67.3 µM); in the assay with HeLa, 8 to 16 µg/mL (≈ 33.7 to 67.3 µM); in the assay on Peritoneal carcinoma, 12 µg/mL (≈ 50.5 µM). Besides, the “inhibition of cell growth / antitumor activity, result in words” value in assay [1] is “preferred activity”.
